Data taken from patent US7101853B2 (Amylin Pharmaceuticals, Inc., priority 1997, dated 2006).
Read-outs that look alike come from different tables or passages of the source. Where no end group is shown, it is not given here.

Columns and labels:
ethanol gavaged rat = test: Gastroprotection: ethanol-induced mucosal damage in the ethanol gavaged rat; format: in vivo
Excerpt: The gastroprotective properties of amylin in an animal model for gastritis—the ethanol gavaged rat—are described in this example.
Mucosal damage was scored between 0 (no damage) and 5 (100% of stomach covered by hyperemia and ulceration) by investigators blinded to the treatment. […] This prediction was obtained by applying the published relationship between injected subcutaneous dose and peak plasma concentration in rats. Young, A. A. et al., Drug Devel. Res. 37:231-48 (1996). […] Mimicking this physiological effect is unlikely to result in unwanted side effects, as is often the case with administration of unphysiological xenobiotics.

[1] = system: Harlan Sprague Dawley rats; test: Tritiated glucose gastric emptying assay; format: in vivo, rat
Description: Conscious, non-fasted, Harlan Sprague Dawley rats were restrained by the tail, the tip of which was anesthetized using 2% lidocaine. Tritium in plasma separated from tail blood collected 0, 15, 30, 60, 90 and 120 minutes after gavage was detected in a beta counter.

diabetic BB rats = test: Phenol red gastric emptying assay, diabetic rats; format: in vivo, rat; conditions: 10 μg s.c. 5 minutes before gavage
Excerpt: (§1) Briefly, conscious rats received by gavage. […] Twenty minutes after gavage, rats were anesthetized using 5% halothane, the stomach exposed and clamped at the pyloric and lower esophageal sphincters using artery forceps, removed and opened into an alkaline solution which was made up to a fixed volume. Stomach content was derived from the intensity of the phenol red in the alkaline solution, measured by absorbance at a wavelength of 560 nm. In most experiments, the stomach was clear. In other experiments, particulate gastric contents were centrifuged to clear the solution for absorbance measurements. Where the diluted gastric contents remained turbid, the spectroscopic absorbance due to phenol red was derived as the difference between that present in alkaline vs acetified diluent. […] The quantity of phenol red that could be recovered from the upper gastrointestinal tact within […] of gavage was 89±4%; dye which appeared to bind irrecoverably to the gut luminal surface may have accounted for the balance. To compensate for this small loss, percent of stomach contents remaining after 20 minutes were expressed as a fraction of the gastric contents recovered from control rats sacrificed immediately after gavage in the same experiment. Percent gastric emptying contents remaining=(absorbance at 20 min)/(absorbance at 0 min). […]

[2] = system: Harlan Sprague Dawley (non-diabetic) rats; test: Phenol red gastric emptying assay, normal rats; format: in vivo, rat; conditions: 1 μg s.c. 5 minutes before gavage, normal HSD rats
Excerpt: as §1

treated test animals = test: Amylin activity in vivo in treated test animals
[3] = in rats, in rabbits, and in humans with Paget's disease; cited from earlier work
[4] = system: ethanol- or indomethacin-induced gastritis in rats; conditions: cited from earlier work
[5] = target: amylin receptor (membrane-bound, rat basal forebrain membranes containing the nucleus accumbens and surrounding regions) (rat); test: competition with 125I-rat amylin on rat basal forebrain membranes

In the case of rat amylin, the “Mucosal damage, percent of scores in the saline-treated controls” value (from here on “Mucosal damage, percent of scores”) (ethanol gavaged rat; 0.001 μg s.c. 5 min before gavage of 1 ml absolute ethanol) is reported as 95.3±15.2%, the “Mucosal damage, percent of scores” value (ethanol gavaged rat; 0.01 μg s.c. 5 min before gavage of 1 ml absolute ethanol) is reported as 76.6±13.8% and the “Mucosal damage, percent of scores” value (ethanol gavaged rat; 0.1 μg s.c. 5 min before gavage of 1 ml absolute ethanol) is reported as 70.1±10.7%. For the same compound, the “Mucosal damage, percent of scores” value (ethanol gavaged rat; 0.3 μg s.c. 5 min before gavage of 1 ml absolute ethanol) was 33.9±7.7%, the “Mucosal damage, percent of scores” value (ethanol gavaged rat; 1 μg s.c. 5 min before gavage of 1 ml absolute ethanol) was 59.6±5.8% and the “Mucosal damage, percent of scores” value (ethanol gavaged rat; 3 μg s.c. 5 min before gavage of 1 ml absolute ethanol) was 35.6±11.5%. The “Mucosal damage, percent of scores” value (ethanol gavaged rat; 10 μg s.c. 5 min before gavage of 1 ml absolute ethanol) was 32.9±8.3%, the “Predicted increase in circulating amylin concentrations at the 50% gastroprotective dose” value (ethanol gavaged rat; […] s.c., from published relationship between s.c. dose and peak plasma concentration in rats) was 1.8 ± 0.4 pM and the “Reduction of the injury score” value (ethanol gavaged rat; as observed with the 10 μg dose) was “up to 67%”. The “ED50 for the gastroprotective effect” value (ethanol gavaged rat; s.c., ±0.4 log units) was 0.036 μg/rat, the “Effect on absorption of the label (plasma tritium)” value ([1]; s.c. 0.1-100 μg 1 minute before gavage) was “dose-dependently slowed and/or delayed the absorption of the label” and the “ED50 derived from the logistic fit (plasma tritium AUC over 30 minutes vs dose)” value ([1]; s.c. 1 minute before gavage of tritiated glucose) was 0.35 μg. For the same compound, the “Suppression of gastric emptying” value (diabetic BB rats) was “complete” and the “Suppression of gastric emptying” value [2] was “complete”.
For “des-^1Lys-h-amylin (CNTATCATQRLANFLVHSSNNFGAILSSTNVGSNTY)”, the “Amylin activity in vivo” value (treated test animals) was “show amylin activity in vivo”.
For “amylin (KCNTATCATQRLANFLVHSSNNFGAILSSTNVGSNTY; not fully specified (C-terminus, bridges); cysteine pairing not given here; UniProt P10997 34-70, looked up) [amylin as named in the cited literature, species form not specified at the place]”, the “Lowering of plasma calcium” value [3] is listed as “up to 20%”, the “Effect on ethanol- or indomethacin-induced gastritis” value ([4]; intracerebroventricular injections) is listed as “did have an effect” and the “Effect on ethanol- or indomethacin-induced gastritis” value ([4]; subcutaneous injections) is listed as “no effect”.
With “purified human amylin (from UniProt P10997 34-70) (peptide)” the IC50 [5] was 0.05 nM.
In the case of `CC[C@H](C)[C@H](NC(=O)[C@@H]1CCCN1C(=O)CNC(=O)[C@H](Cc1ccccc1)NC(=O)[C@H](CC(N)=O)NC(=O)[C@H](CC(N)=O)NC(=O)[C@H](CO)NC(=O)[C@H](CO)NC(=O)[C@H](Cc1c[nH]cn1)NC(=O)[C@@H](NC(=O)[C@H](CC(C)C)NC(=O)[C@H](Cc1ccccc1)NC(=O)[C@H](CC(N)=O)NC(=O)[C@H](C)NC(=O)[C@H](CC(C)C)NC(=O)[C@H](CCCNC(=N)N)NC(=O)[C@H](CCC(N)=O)NC(=O)[C@@H](NC(=O)[C@H](C)NC(=O)[C@@H]1CSSC[C@H](NC(=O)[C@@H](N)CCCCN)C(=O)N[C@@H](CC(N)=O)C(=O)N[C@@H]([C@@H](C)O)C(=O)N[C@@H](C)C(=O)N[C@@H]([C@@H](C)O)C(=O)N1)[C@@H](C)O)C(C)C)C(=O)N[C@@H](CC(C)C)C(=O)N1CCC[C@H]1C(=O)N1CCC[C@H]1C(=O)N[C@H](C(=O)N[C@@H](CC(N)=O)C(=O)N[C@H](C(=O)NCC(=O)N[C@@H](CO)C(=O)N[C@@H](CC(N)=O)C(=O)N[C@H](C(=O)N[C@@H](Cc1ccc(O)cc1)C(N)=O)[C@@H](C)O)C(C)C)[C@@H](C)O` [^25,28,29Pro-h-Amylin], the “Amylin activity in vivo” value (treated test animals) is reported as “show amylin activity in vivo”.
